Measured values from US6521650B1, “Amines as pharmaceutical agents” (Pfizer, Inc., priority 1997, dated 2003).

Assays:
DBA2 = DBA2 % Protection; assay type: in vivo

Row | SMILES | DBA2 % Protection 1 Hr (DBA2) | DBA2 % Protection 2 Hr (DBA2) | melting point
1 | CC(C)CC(CN)Cc1noc(=S)[nH]1 (centres unmarked) | 0% | 0% | 
2 | CC(C)CC(CN)CP(=O)(O)O (centres unmarked) [PO3H2, (2-Aminomethyl-4-methyl-pentyl)-phosphonic acid] | 0% | 0% | 
3 | CC(C)CC(CN)Cc1noc(=S)[nH]1.Cl (centres unmarked) |  |  | 183 to 185 °C
